In general, IC50 refers to the concentration at which inhibition is half-maximal. High values mean lower potency, low ones higher potency.

Where only a bound is given, the exact number is not on record here.

28 compounds from US12187728B2 (Raze Therapeutics, Inc., priority 2015, dated 2025) can be followed below.

The target in this assay is T1, Human MTHFD2 (Homo sapiens, UniProt P13995).
T1 construct: residues 36-350 in Uniport ID P13995; His6 (N); made in house; host or cells: E. coli
T1 sequence (P13995 36-350): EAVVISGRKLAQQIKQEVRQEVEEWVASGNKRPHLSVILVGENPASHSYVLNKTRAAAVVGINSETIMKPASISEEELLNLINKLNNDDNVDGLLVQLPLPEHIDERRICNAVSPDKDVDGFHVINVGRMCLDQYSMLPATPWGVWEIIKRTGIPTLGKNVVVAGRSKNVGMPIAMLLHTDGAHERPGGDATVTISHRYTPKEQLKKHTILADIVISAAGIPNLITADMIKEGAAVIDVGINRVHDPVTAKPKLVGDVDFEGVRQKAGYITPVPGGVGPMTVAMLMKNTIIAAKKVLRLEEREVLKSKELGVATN
The experiment in a line: MTHFD2 Activity Assay (dehydrogenase activity, diaphorase/resazurin coupled fluorescence). It is filed as biochemical. The settings on record: inhibitory activity (IC50 and/or binding constant); 0.2 nM MTHFD2, 11 concentrations. The gist of the method:
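His6-tagged MTHFD2 (res. 36-350), E. coli-expressed, at 0.2 nM preincubated with compound 15 min in Hepes pH 8.0/MgCl2/KH2PO4 buffer; 70 μM CH2-THF, 1 mM NAD+ added with resazurin/diaphorase, 30 min, EDTA stop. Resorufin fluorescence (ex 525/em 598); IC50 from 11-point 4-parameter fit.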
In the case of `Cn1c(N)nc2c1c(=O)n(Cc1cc3cc(Cl)ccc3[nH]1)c(=O)n2C` [Example 241, 8-amino-1-((5-chloro-1H-indol-2-yl)methyl)-3,7-dimethyl-1H-purine-2,6(3H,7H)-dione], the IC50 is 5000 to 10000 nM.

With `COc1ccc(Nc2nc3c(c(=O)n(Cc4cc5c(Cl)cccc5[nH]4)c(=O)n3C)n2C)cn1` [Example 380, 1-((4-chloro-1H-indol-2-yl)methyl)-8-(6-methoxypyridin-3-ylamino)-3,7-dimethyl-1H-purine-2,6(3H,7H)-dione], the IC50 was in the range of 10 to 1000 nM.

`Cn1c(Nc2ccncc2)nc2c1c(=O)n(Cc1cc3c(C(F)(F)F)cccc3[nH]1)c(=O)n2C` [Example 404, 3,7-dimethyl-8-(pyridin-4-ylamino)-1-((4-(trifluoromethyl)-1H-indol-2-yl)methyl)-1H-purine-2,6(3H,7H)-dione] yielded an IC50 of 10 to 1000 nM.

Compound `CNC(=O)CCc1cccc(Nc2nc3c(c(=O)n(Cc4cc5c(Cl)cccc5[nH]4)c(=O)n3C)n2C)n1` [Example 330, 3-(6-(1-((4-chloro-1H-indol-2-yl)methyl)-3,7-dimethyl-2,6-dioxo-2,3,6,7-tetrahydro-1H-purin-8-ylamino)pyridin-2-yl)-N-methylpropanamide] came in with a half-inhibitory concentration (IC50) of 10 to 1000 nM.

In the case of `Cn1c(Nc2ccc3c(c2)CC(CO)C3)nc2c1c(=O)n(Cc1ccc(Cl)c(Cl)c1)c(=O)n2C` (stereo not shown) [Example 324, 1-(3,4-dichlorobenzyl)-8-((2-(hydroxymethyl)-2,3-dihydro-1H-inden-5-yl)amino)-3,7-dimethyl-1H-purine-2,6(3H,7H)-dione], the IC50 is 1000 to 5000 nM.

`CN(C)C1CCCC(Nc2nc3c(c(=O)n(Cc4ccc(Cl)c(Cl)c4)c(=O)n3C)n2C)C1` (racemic) [Example 84, (±)-1-(3,4-dichlorobenzyl)-8-(((cis)-3-(dimethylamino)cyclohexyl)amino)-3,7-dimethyl-3,7-dihydro-1H-purine-2,6-dione or (±)-1-(3,4-dichlorobenzyl)-8-(((trans)-3-(dimethylamino)cyclohexyl)amino)-3,7-dimethyl-3,7-dihydro-1H-purine-2,6-dione] registered a half-inhibitory concentration (IC50) of 1000 to 5000 nM.

`Cn1c(NCCCO)nc2c1c(=O)n(Cc1ccc(Cl)c(CO)c1)c(=O)n2C` [Example 166, 1-{[4-chloro-3-(hydroxymethyl)phenyl]methyl}-8-[(3-hydroxypropyl)amino]-3,7-dimethyl-2,3,6,7-tetrahydro-1H-purine-2,6-dione] returned a concentration for half-maximal inhibition (IC50) of over 10000 nM.

In the case of `Cn1c(NC2CCCC(O)C2)nc2c1c(=O)n(Cc1ccc(Cl)c(Cl)c1)c(=O)n2C` (stereo not shown) [Example 33, 1-[(3,4-dichlorophenyl)methyl]-8-[(3-hydroxycyclohexyl)amino]-3,7-dimethyl-2,3,6,7-tetrahydro-1H-purine-2,6-dione], the half-inhibitory concentration (IC50) lay in the range of 10 to 1000 nM.

In turn, `Cn1c(C2CCCCN2)nc2c1c(=O)n(Cc1cc3c(Cl)cccc3[nH]1)c(=O)n2C` (stereo not shown) [Example 430, 1-((4-chloro-1H-indol-2-yl)methyl)-3,7-dimethyl-8-(piperidin-2-yl)-3,7-dihydro-1H-purine-2,6-dione] yielded a concentration for half-maximal inhibition (IC50) of 10 to 1000 nM.

`Cc1ccc2[nH]c(Cn3c(=O)c4c(nc(-n5nccc5N)n4C)n(C)c3=O)cc2c1` [Example 218, 8-(5-amino-1H-pyrazol-1-yl)-3,7-dimethyl-1-((5-methyl-1H-indol-2-yl)methyl)-1H-purine-2,6(3H,7H)-dione] registered an IC50 of 10 to 1000 nM.

Regarding `Cn1c(Nc2ccnc(C(F)(F)F)c2)nc2c1c(=O)n(Cc1cc3c(Cl)cccc3[nH]1)c(=O)n2C` [Example 334, 1-[(4-chloro-1H-indol-2-yl)methyl]-8-[(2-trifluoromethyl-4-pyridyl)amino]-3,7-dimethyl-purine-2,6-dione], the IC50 is 1000 to 5000 nM.

On to `CCn1c(=O)n(Cc2ccc(Cl)c(Cl)c2)c(=O)c2c1ncn2C` [Example 250, 1-(3,4-dichlorobenzyl)-3-ethyl-7-methyl-1H-purine-2,6(3H,7H)-dione], for which the IC50 fell in the range of 5000 to 10000 nM.

Take `Cc1cccc2cc(Cn3c(=O)c4c(nc(Nc5ccncc5)n4C)n(C)c3=O)ccc12` [Example 410, 3,7-dimethyl-1-((5-methylnaphthalen-2-yl)methyl)-8-(pyridin-4-ylamino)-1H-purine-2,6(3H,7H)-dione]: the IC50 fell in the range of 10 to 1000 nM.

In the case of `Cc1ccc2[nH]c(Cn3c(=O)c4c(nc(Nc5ccncn5)n4C)n(C)c3=O)cc2c1` [Example 205, 3,7-dimethyl-1-((5-methyl-1H-indol-2-yl)methyl)-8-(pyrimidin-4-ylamino)-1H-purine-2,6(3H,7H)-dione], the IC50 lay in the range of 10 to 1000 nM.

`Cn1c(Nc2ccc(CN)nc2)nc2c1c(=O)n(Cc1cc3c(Cl)cccc3[nH]1)c(=O)n2C` [Example 429, 8-(6-(aminomethyl)pyridin-3-ylamino)-1-((4-chloro-1H-indol-2-yl)methyl)-3,7-dimethyl-1H-purine-2,6(3H,7H)-dione] returned an IC50 of 10 to 1000 nM.

In the case of `Cn1c(C(N)C2CCOCC2)nc2c1c(=O)n(Cc1cc3c(Cl)cccc3[nH]1)c(=O)n2C` (stereo not shown) [Example 454, 8-[amino(tetrahydropyran-4-yl)methyl]-1-[(4-chloro-1H-indol-2-yl)methyl]-3,7-dimethyl-purine-2,6-dione], the 50% inhibitory concentration (IC50) was 10 to 1000 nM.

The compound `Cn1c(Nc2ccnc([C@H]3C[C@@H]3C(=O)O)c2)nc2c1c(=O)n(Cc1cc3c(Cl)cccc3[nH]1)c(=O)n2C` (racemic) [Example 321, (±)-trans-2-(4-((1-((4-chloro-1H-indol-2-yl)methyl)-3,7-dimethyl-2,6-dioxo-2,3,6,7-tetrahydro-1H-purin-8-yl)amino)pyridin-2-yl)cyclopropanecarboxylic acid] registered an IC50 of 10 to 1000 nM.

In turn, `Cn1c(NC2CCCCC2)nc2c1c(=O)n(Cc1ccc(Cl)c(Cl)c1)c(=O)n2C` [Example 59, 8-(cyclohexylamino)-1-[(3,4-dichlorophenyl)methyl]-3,7-dimethyl-2,3,6,7-tetrahydro-1H-purine-2,6-dione] had an IC50 of 1000 to 5000 nM.

Regarding `COc1cccc2[nH]c(Cn3c(=O)c4c(nc(Nc5ccncc5)n4C)n(C)c3=O)cc12` [Example 370, 1-((4-methoxy-1H-indol-2-yl)methyl)-3,7-dimethyl-8-(pyridin-4-ylamino)-1H-purine-2,6(3H,7H)-dione], the 50% inhibitory concentration (IC50) is 10 to 1000 nM.

`Cn1c(NCCCO)nc2[nH]c(=O)n(Cc3ccc(Cl)c(Cl)c3)c(=O)c21` [Example 97, 1-[(3,4-dichlorophenyl)methyl]-8-[(3-hydroxypropyl)amino]-7-methyl-2,3,6,7-tetrahydro-1H-purine-2,6-dione]: the IC50 lay in the range of 1000 to 5000 nM.

Compound `Cc1cccc2[nH]c(Cn3c(=O)c4c(nc(Nc5ccncc5)n4C)n(C)c3=O)c(C)c12` [Example 419, 1-((3,4-dimethyl-1H-indol-2-yl)methyl)-3,7-dimethyl-8-(pyridin-4-ylamino)-1H-purine-2,6(3H,7H)-dione] returned a concentration for half-maximal inhibition (IC50) of 10 to 1000 nM.

As to `CNC(=O)CCc1nccc(Nc2nc3c(c(=O)n(Cc4cc5c(Cl)cccc5[nH]4)c(=O)n3C)n2C)n1` [Example 415, 3-(4-(1-((4-chloro-1H-indol-2-yl)methyl)-3,7-dimethyl-2,6-dioxo-2,3,6,7-tetrahydro-1H-purin-8-ylamino)pyrimidin-2-yl)-N-methylpropanamide], the IC50 lay within 10 to 1000 nM.

The compound `Cn1c(N[C@@H]2CC[C@@H](O)C2)nc2c1c(=O)n(Cc1ccc(C(F)(F)F)cc1)c(=O)n2C` (single isomer, unassigned) [Example 144, 8-((1R,3R)-3-hydroxycyclopentylamino)-3,7-dimethyl-1-(4-(trifluoromethyl)benzyl)-1H-purine-2,6(3H,7H)-dione or 8-((1S,3S)-3-hydroxycyclopentylamino)-3,7-dimethyl-1-(4-(trifluoromethyl)benzyl)-1H-purine-2,6(3H,7H)-dione] had an IC50 of 1000 to 5000 nM.

Take `Cn1c(NCCOCCO)nc2c1c(=O)n(Cc1ccc(Cl)c(Cl)c1)c(=O)n2C` [Example 54, 1-[(3,4-dichlorophenyl)methyl]-8-{[2-(2-hydroxyethoxy)ethyl]amino}-3,7-dimethyl-2,3,6,7-tetrahydro-1H-purine-2,6-dione]: the 50% inhibitory concentration (IC50) fell in the range of 10 to 1000 nM.

With `CC(=O)NCCNc1nc2c(c(=O)n(Cc3ccc(Cl)c(Cl)c3)c(=O)n2C)n1C` [Example 22, N-[2-({1-[(3,4-dichlorophenyl)methyl]-3,7-dimethyl-2,6-dioxo-2,3,6,7-tetrahydro-1H-purin-8-yl}amino)ethyl]acetamide], the IC50 is 10 to 1000 nM.

Take `C[C@@H](O)CNc1nc2c(c(=O)n(Cc3ccc(C(F)(F)F)cc3)c(=O)n2C)n1C` [Example 57, 8-{[(2R)-2-hydroxypropyl]amino}-3,7-dimethyl-1-{[4-(trifluoromethyl)phenyl]methyl}-2,3,6,7-tetrahydro-1H-purine-2,6-dione]: the IC50 was 5000 to 10000 nM.

`Cn1c(N[C@H]2C[C@@H](CO)C2)nc2c1c(=O)n(Cc1ccc(Cl)c(Cl)c1)c(=O)n2C` [Example 261, (±)-1-(3,4-dichlorobenzyl)-8-((cis)-3-(hydroxymethyl)cyclobutylamino)-3,7-dimethyl-1H-purine-2,6(3H,7H)-dione] gave a concentration for half-maximal inhibition (IC50) of 10 to 1000 nM.

For `Cn1c(Nc2cccc([C@@H]3C[C@H]3C(=O)O)n2)nc2c1c(=O)n(Cc1cc3c(Cl)cccc3[nH]1)c(=O)n2C` (racemic) [Example 315, (±)-trans-2-[6-[[1-[(4-chloro-1H-indol-2-yl)methyl]-3,7-dimethyl-2,6-dioxo-purin-8-yl]amino]-2-pyridyl]cyclopropanecarboxylic acid], the half-maximal inhibitory concentration (IC50) is 10 to 1000 nM.
